Results as given in patent publication US20120121591A1 (priority 2009, published 2012).
Where two headings read alike, the source gives them in different places.

What was measured:
Format in all cases: cell-based
[1] = tested on: IFN-g secretion from T cells in human whole blood
[2] = tested on: IL-2 secretion from T cells in human whole blood; conditions: read-out: WB (IL-2) IC50 (nM, Avg)
hKv1.3 = hKv1.3 (Homo sapiens, UniProt P22001); assay: cell-based; conditions: Kv1.3 (IWQ) IC50 (nM, Avg)
Sequence of hKv1.3 (P22001 whole entry): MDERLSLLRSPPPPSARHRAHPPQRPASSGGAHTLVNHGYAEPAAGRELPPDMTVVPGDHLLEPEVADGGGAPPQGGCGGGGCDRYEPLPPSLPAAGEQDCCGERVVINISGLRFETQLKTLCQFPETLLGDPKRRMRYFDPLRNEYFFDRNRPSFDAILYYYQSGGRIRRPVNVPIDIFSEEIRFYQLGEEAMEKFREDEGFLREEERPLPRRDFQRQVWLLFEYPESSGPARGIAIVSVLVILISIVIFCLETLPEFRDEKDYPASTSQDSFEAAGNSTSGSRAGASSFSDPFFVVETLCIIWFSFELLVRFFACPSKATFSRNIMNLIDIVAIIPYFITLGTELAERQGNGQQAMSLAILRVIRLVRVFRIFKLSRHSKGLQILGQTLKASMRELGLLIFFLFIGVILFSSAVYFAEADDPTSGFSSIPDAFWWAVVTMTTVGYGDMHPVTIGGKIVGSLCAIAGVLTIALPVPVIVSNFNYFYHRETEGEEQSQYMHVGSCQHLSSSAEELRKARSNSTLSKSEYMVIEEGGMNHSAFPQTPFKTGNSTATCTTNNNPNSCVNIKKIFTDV

[3] = read-out: WB (IFNg) IC50 (nM, Avg)

Structure (SMILES) | IC50 ([1]; read-out: WB (IFNg) IC5- (nM, Avg)) [nM] | IC50 [2] [nM] | IC50 (hKv1.3) [nM] | IC50 [1, 3] [nM]
CC[C@H](C)[C@@H]1NC(=O)[C@@H](NC(=O)[C@H](CO)NC(=O)[C@@H](N)CCCNC(=N)N)CSSC[C@@H](C(=O)O)NC(=O)[C@H]([C@@H](C)O)NC(=O)CNC(=O)[C@@H]2CSSC[C@@H]3NC(=O)[C@H](CCC(N)=O)NC(=O)[C@H](Cc4ccccc4)NC(=O)[C@H](C)NC(=O)[C@H]([C@@H](C)O)NC(=O)[C@H](CSSC[C@H](NC(=O)[C@H](Cc4ccccc4)NC(=O)[C@H](CO)NC(=O)[C@H](CC(C)C)NC(=O)[C@H](CCCNC(=N)N)NC(=O)[C@H](Cc4ccc(O)cc4)NC(=O)[C@H](CCCCN)NC(=O)[C@H](CCSC)NC(=O)[C@H](CO)NC(=O)[C@H](Cc4c[nH]cn4)NC(=O)[C@H](CCCCN)NC3=O)C(=O)N[C@@H](CCCNC(=N)N)C(=O)N[C@@H](CCCCN)C(=O)N[C@@H](CCC(=O)O)C(=O)N2)NC(=O)[C@H](CCCNC(=N)N)NC(=O)[C@H](CO)NC(=O)[C@H](CCCCN)NC(=O)[C@@H]2CCCN2C(=O)[C@H]([C@@H](C)CC)NC(=O)[C@H]([C@@H](C)O)NC(=O)[C@H](CC(=O)O)NC1=O [[Glu31]ShK] | 0.309 | 0.242 | 0.22 | 
CC[C@H](C)[C@@H]1NC(=O)[C@@H](NC(=O)[C@H](CO)NC(=O)[C@@H](N)CCCNC(=N)N)CSSC[C@@H](C(N)=O)NC(=O)[C@H]([C@@H](C)O)NC(=O)CNC(=O)[C@@H]2CSSC[C@@H]3NC(=O)[C@H](CCCCN)NC(=O)[C@H](Cc4ccccc4)NC(=O)[C@H](C)NC(=O)[C@H]([C@@H](C)O)NC(=O)[C@H](CSSC[C@H](NC(=O)[C@H](Cc4ccccc4)NC(=O)[C@H](Cc4ccccc4)NC(=O)[C@H](CC(C)C)NC(=O)[C@H](CCCNC(=N)N)NC(=O)[C@H](Cc4ccc(O)cc4)NC(=O)[C@H](CCCCN)NC(=O)[C@H](CCSC)NC(=O)[C@H](CO)NC(=O)[C@H](Cc4c[nH]cn4)NC(=O)[C@H](CCCCN)NC3=O)C(=O)N[C@@H](CCCCN)C(=O)N[C@@H](CCCCN)C(=O)N[C@@H]([C@@H](C)O)C(=O)N2)NC(=O)[C@H](CCCNC(=N)N)NC(=O)[C@H](CO)NC(=O)[C@H](CCCCN)NC(=O)[C@@H]2CCCN2C(=O)[C@H]([C@@H](C)CC)NC(=O)[C@H]([C@@H](C)O)NC(=O)[C@H](CC(=O)O)NC1=O [[Lys16, 29;Phe26]ShK-amide] |  | 1.42 | 0.542 | 1.36
CC[C@H](C)[C@@H]1NC(=O)[C@@H](NC(=O)[C@H](CO)NC(=O)[C@@H](N)CCCNC(=N)N)CSSC[C@@H](C(N)=O)NC(=O)[C@H]([C@@H](C)O)NC(=O)CNC(=O)[C@@H]2CSSC[C@@H]3NC(=O)[C@H](CCCCN)NC(=O)[C@H](Cc4ccccc4)NC(=O)[C@H](C)NC(=O)[C@H]([C@@H](C)O)NC(=O)[C@H](CSSC[C@H](NC(=O)[C@H](Cc4ccccc4)NC(=O)[C@H](CO)NC(=O)[C@H](CC(C)C)NC(=O)[C@H](CCCNC(=N)N)NC(=O)[C@H](Cc4ccc(O)cc4)NC(=O)[C@H](CCCCN)NC(=O)[C@H](CC(C)C)NC(=O)[C@H](CO)NC(=O)[C@H](Cc4c[nH]cn4)NC(=O)[C@H](CCCCN)NC3=O)C(=O)N[C@@H](CCCNC(=N)N)C(=O)N[C@@H](CCCCN)C(=O)N[C@@H]([C@@H](C)O)C(=O)N2)NC(=O)[C@H](CCCNC(=N)N)NC(=O)[C@H](CO)NC(=O)[C@H](CCCCN)NC(=O)[C@@H]2CCCN2C(=O)[C@H]([C@@H](C)CC)NC(=O)[C@H]([C@@H](C)O)NC(=O)[C@H](CC(=O)O)NC1=O [[Lys16, Leu21]ShK-amide] |  | 0.889 | 0.213 | 0.636
CC[C@H](C)[C@@H]1NC(=O)[C@@H](NC(=O)[C@H](CO)NC(=O)[C@@H](N)CCCNC(=N)N)CSSC[C@@H](C(=O)O)NC(=O)[C@H]([C@@H](C)O)NC(=O)CNC(=O)[C@@H]2CSSC[C@@H]3NC(=O)[C@H](CCC(N)=O)NC(=O)[C@H](Cc4ccccc4)NC(=O)[C@H](C)NC(=O)[C@H]([C@@H](C)O)NC(=O)[C@H](CSSC[C@H](NC(=O)[C@H](Cc4ccccc4)NC(=O)[C@H](CO)NC(=O)[C@H](CC(C)C)NC(=O)[C@H](CCCNC(=N)N)NC(=O)[C@H](Cc4ccc(O)cc4)NC(=O)[C@H](CCCCN)NC(=O)[C@H](Cc4cccc5ccccc45)NC(=O)[C@H](CO)NC(=O)[C@H](Cc4c[nH]cn4)NC(=O)[C@H](CCCCN)NC3=O)C(=O)N[C@@H](CCCNC(=N)N)C(=O)N[C@@H](CCCCN)C(=O)N[C@@H]([C@@H](C)O)C(=O)N2)NC(=O)[C@H](CCCNC(=N)N)NC(=O)[C@H](CO)NC(=O)[C@H](CCCCN)NC(=O)[C@@H]2CCCN2C(=O)[C@H]([C@@H](C)CC)NC(=O)[C@H]([C@@H](C)O)NC(=O)[C@H](CC(=O)O)NC1=O [[1-Nal21]ShK] |  | 6.59 | 0.669 | 8.13
CC[C@H](C)[C@@H]1NC(=O)[C@@H](NC(=O)[C@H](CO)NC(=O)[C@@H](N)CCCNC(=N)N)CSSC[C@@H](C(=O)O)NC(=O)[C@H]([C@@H](C)O)NC(=O)CNC(=O)[C@@H]2CSSC[C@@H]3NC(=O)[C@H](CCC(N)=O)NC(=O)[C@H](Cc4ccccc4)NC(=O)[C@H](C)NC(=O)[C@H]([C@@H](C)O)NC(=O)[C@H](CSSC[C@H](NC(=O)[C@H](Cc4ccccc4)NC(=O)[C@H](CO)NC(=O)[C@H](CC(C)C)NC(=O)[C@H](CCCNC(=N)N)NC(=O)[C@H](Cc4ccc(O)cc4)NC(=O)[C@H](CCCCN)NC(=O)[C@H](CCSC)NC(=O)[C@H](CO)NC(=O)[C@H](Cc4c[nH]cn4)NC(=O)[C@H](CCCCN)NC3=O)C(=O)N[C@@H](CCCNC(=N)N)C(=O)N[C@@H](CCCCN)C(=O)N[C@@H]([C@@H](C)O)C(=O)N2)NC(=O)[C@H](CCCNC(=N)N)NC(=O)[C@H](CO)NC(=O)[C@H](CCCCN)NC(=O)[C@@H]2CCCN2C(=O)[C@H]([C@@H](C)CC)NC(=O)[C@H](Cc2cccc3ccccc23)NC(=O)[C@H](CC(=O)O)NC1=O [[1-Nal6]ShK] |  | 0.86 | 0.15 | 0.962
CC[C@H](C)[C@@H]1NC(=O)[C@@H](NC(=O)[C@H](CO)NC(=O)[C@@H](N)CCCNC(=N)N)CSSC[C@@H](C(=O)O)NC(=O)[C@H]([C@@H](C)O)NC(=O)CNC(=O)[C@@H]2CSSC[C@@H]3NC(=O)[C@H](CCC(N)=O)NC(=O)[C@H](Cc4ccccc4)NC(=O)[C@H](C)NC(=O)[C@H]([C@@H](C)O)NC(=O)[C@H](CSSC[C@H](NC(=O)[C@H](Cc4ccccc4)NC(=O)[C@H](CO)NC(=O)[C@H](CC(C)C)NC(=O)[C@H](C)NC(=O)[C@H](Cc4ccc(O)cc4)NC(=O)[C@H](CCCCN)NC(=O)[C@H](CCSC)NC(=O)[C@H](CO)NC(=O)[C@H](Cc4c[nH]cn4)NC(=O)[C@H](CCCCN)NC3=O)C(=O)N[C@@H](CCCNC(=N)N)C(=O)N[C@@H](CCCCN)C(=O)N[C@@H]([C@@H](C)O)C(=O)N2)NC(=O)[C@H](CCCNC(=N)N)NC(=O)[C@H](CO)NC(=O)[C@H](CCCCN)NC(=O)[C@@H]2CCCN2C(=O)[C@H]([C@@H](C)CC)NC(=O)[C@H]([C@@H](C)O)NC(=O)[C@H](CC(=O)O)NC1=O [[Ala24]ShK] |  | 0.043 | 0.062 | 0.216
